Measurements published in patent US9550976B2, “Methods for compact aggregation of dermal cells” (THE TRUSTEES OF COLUMBIA UNIVERSITY IN THE CITY OF NEW YORK, priority 2006, dated 2017).

Legend:
[1] = tested on: hair follicle morphogenesis in embryonic skin cultures; assay: Mouse embryonic skin organ culture, effects of reduced HA on hair follicle morphogenesis; assay type: cell-based; conditions: for in vivo skin stage to which the cultured skin / follicles correspond: after 72 hr in culture of 14.5 dpc skin, histology and syndecan-1 pattern
Protocol: To study the effects of HA misexpression in the development of a HF, an embryonic skin organ culture model was utilized. To assess how representative this model was for investigating the role of HA distribution in vivo, the expression of CD44 and HA in the cultured embryonic skin was first investigated. Embryonic skin cultures were established using pre-hair follicle initiation (14.5 dpc) skin and were incubated for 72 hrs. The cultured skin hair placodes became visible after 24 hr in culture. After 72 hr, skins were removed from culture, sectioned, and the expression of both HA and CD44 were assessed (FIG. 19). The dermal condensate was negative for HA staining (red) while expressing CD44 (green). Expression of both proteins in the HF of the cultured backskin was virtually indiscernible from that of 16.5 dpc back skin in vivo (FIG. 19). The effects of HA synthesis downregulation of hair follicle morphogenesis was investigated. Embryonic skin was cultured for 72 hrs in the presence of BSA (control) or one of two HAS inhibitors, leflunomide (Lef) (50 nM) or 4-methylumbelliferone (30 mM). In the presence of BSA, CD44 was localized predominantly to the dermal condensate, while HA remained absent from the dermal condensate (FIG. 20). […] To ascertain whether this reduction was due to an actual inhibitory effect of Lef on hair follicle morphogenesis and development, cultured skin from all treatments and control groups were enzymatically split and the separated epidermis inverted to allow the visualization of the developing epidermal hair germs. […] To explore the effects of a global degradation of HA protein on hair follicle morphogenesis within the skin cultures, embryonic skin was cultured for 72 hrs in the presence of either BSA (control) or hyaluronanase (HAase) (25 units/ml). […] Following 72 hrs in culture, embryonic skin from the four treatments described above were cryo-embedded, sectioned, and stained with hematoxylin and eosin (H&E) for histological study. […] After 72 hr in culture, follicles corresponded to those found in 14.5 dpc skin in vivo, both histologically and in their syndecan-1 expression patterns (FIG. 22).

[2] = tested on: hair follicle formation; conditions: whole skin organ culture; as previously shown (Kashiwagi 1997); cited from earlier work
[3] = Lef 50 nM, 4-methylumbelliferone 30 mM
[4] = embryonic skin cultured 72 hrs, Lef 50 nM, 4-methylumbelliferone 30 mM, HAase 25 units/ml
[5] = embryonic skin cultured 72 hrs, Lef 50 nM, 4-methylumbelliferone 30 mM, HAase 25 units/ml, vs BSA control

Molecule | in vivo skin stage to which the cultured skin / follicles correspond [1, 3] | Syndecan-1 expression (marker of the dermal condensation) ([1]; embryonic skin cultured 72 hrs, 4-methylumbelliferone 30 mM, HAase 25 units/ml) | histology (H&E) of cultured skin [1, 4] | number of visible follicles on the surface of the skin [1, 5] | hair follicle formation [2] | size and number of epidermal hair germs on the inverted, enzymatically separated epidermis ([1]; embryonic skin cultured 72 hrs, Lef 50 nM, HAase 25 units/ml, vs BSA control)
Cc1cc(=O)oc2cc(O)ccc12 [4-methylumbelliferone] | 16.5 dpc | normal hair follicle development | indistinguishable from the control skin | no effect on the number of visible follicles | – | –
EGF: growth factor used to inhibit hair follicle formation in skin organ culture (NSYPGCPSSYDGYCLNGGVCMHIESLDSYTCNCVIGYSGDRCQTRDLRWWELR; UniProt P01132 977-1029, looked up) | – | – | – | – | completely inhibited | –
Cc1oncc1C(=O)Nc1ccc(C(F)(F)F)cc1 [Lef, leflunomide] | 14.5 dpc | – | inhibition of follicle development | reduction in the number of visible follicle on the surface of the skin | – | smaller and sparser than those of the control
